# Assay results: patent publication US5091169A, “Dipyridoxyl phosphate NMRI contrast agent compositions” (priority 1989, dated 1992)
# What was measured:
# [1] = Potentiometric titration of DPDP (ligand proton titration); type: physicochemical; settings: pH of 3 and above
# Text: The compound DPDP was studied potentiometrically from pH 11.2 to 2.0. Data sets were collected on a custom-built automatic potentiometric titration apparatus composed of a METROHM 655 DOSIMAT automatic buret, a FISHER ACCUMET pH meter with a CORNING calomel combination electrode, a custom-blown water jacketed titration cell, a BRINKMAN LAUDA K-2/R constant temperature bath and a COMMODORE 64 computer. The BASIC computer program TITRATOR (Harris, W. et al, J.Am.Chem.Soc. 101:6534 (1979)) runs the apparatus. Data analysis was performed on an IBM-AT computer using the least squares program, BETA (Harris, W. et al, supra), and the data analysis program, HANDNBAR (Harris, W. et al, supra). The titrants were standardized by phenophthalein titration as follows: KOH was calibrated against potassium hydrogen phthalate (a primary standard), and HCl solutions were calibrated against the KOH standard. The Mn(II)Cl2 solution was standardized with an EDTA titration using Erichrome Black T as the indicator. All solutions were made from distilled, deionized water that was further purified on a MILLI-Q cartridge system, degassed, and then kept under an atmosphere of argon which had been scrubbed for CO2 and O2. Additions of EDTA and Mn(II) solutions were performed using calibrated GILMOT pipets. […]
# [2] = L'Eplathenier et al titrations; cited from earlier work
Structure (SMILES),ligand charge / deprotonation state [1],oxidation of manganese(II) during titration [2]
"Cc1ncc(COP(=O)(O)O)c(CN(CCN(CC(=O)O)Cc2c(COP(=O)(O)O)cnc(C)c2O)CC(=O)O)c1O [DPDP, N,N'-bis(3-hydroxy-2-methyl-5-phosphonomethyl-4-pyridylmethyl)ethylenediamine-N,N'-diacetic acid]",anionic and possesses deprotonated metal binding sites,
"O=C(O)CN(CCN(CC(=O)O)Cc1ccccc1O)Cc1ccccc1O [HBED, N,N'-bis(2-hydroxybenzyl)ethylenediamine-N,N'-diacetic acid]",,the manganese(II) ion was oxidized by the phenolic ligand
